# Test results: patent US20160022599A1, “System and Method for Fabrication of Uniform Polymer Films Containing Nano and Micro Particles via Continuous Drying Process” (NEW JERSEY INSTITUTE OF TECHNOLOGY, priority 2013, published 2016)
# Legend:
# [1] = cited from earlier work
# [2] = cited from earlier work; remark: listed apart in the source
# [3] = cited from earlier work; remark: listed apart in the source
# [4] = USP IV flow-through cell dissolution of films in SDS solution; format: physicochemical
# Procedure: The dissolution experiments were performed by cutting out a ⅜ inch diameter sample of film and placing it into a flow-though cell dissolution apparatus (USP IV, Sotax, Switzerland) while 118 mL (5.4 mg/mL) aqueous SDS passed through cells (internal diameter of 22.6 mm) at a rate of 16 mL per minute. The amount of API dissolved from the film was measured over time until 100% of drug was released.
# Dissolution experiments were performed using a flow-through cell dissolution apparatus (USP IV, Sotax, Switzerland) with cells of an internal diameter of 22.6 mm. Films were horizontally positioned in the cells with glass beads (1 mm in diameter) filling up the conical part at the bottom of each cell. Glass microfiber filters (GF/D grade, Whatman, Schenectady, N.Y., USA) were used in the filter-head. The temperature was maintained at 37±0.5° C. and a flow rate of 15 mL/min was used.
# During testing, the dissolution medium (20 mM SDS solution, 100 mL) was circulated by pumping it through each cell. Six samples were used and the average drug release and the standard deviation were plotted as a function of time.
# The dissolution behavior of the stripfilms made using the blend (HPMC and PVP) strip films containing GF nanoparticles was examined using a flow-through cell dissolution apparatus (USP IV, Sotax, Switzerland) with cells of an internal diameter of 22.6 mm. Six circular film samples (having an area of 0.712 cm^2) were punched out of each film and tested. For each film, six samples were horizontally positioned in the six cells with 6.5 g of glass beads (1 mm in diameter) filling up the conical part at the bottom of each cell. Pall HT Tuffryn Membrane Disc Filters (0.2 μm) were used for this study in the filter-head in each experiment. The temperature was maintained at 37±0.5° C., and a flow rate of 16 ml/min was used. During testing, a 100 ml dissolution medium (SDS solution (5.4 mg/ml)) was circulated by pumping it through each cell. […]
# [5] = USP IV flow-through cell dissolution of films in deionized water; format: physicochemical; conditions: DI water media
# Procedure: Therefore, for the present disclosure, a flow-through cell dissolution apparatus (USP 4, Sotax, Switzerland) with cells of an internal diameter of 22.6 mm was employed. Circular film samples (having an area of 0.712 cm^2) were horizontally positioned in the cells with glass beads (1 mm in diameter) filling the top and bottom of each cell. […] The temperature was maintained at 37±0.5° C. and a flow rate of 16 mL/min was used. Dissolution experiments were carried out using two different media. […] For the second case, deionized (DI) water was used as the media. Six samples were used from each film (S-S8) and the average drug release was plotted as a function of time. To better understand the effect of SDIs on rate of drug release from HPMC films, two new formulations were prepared (formulation S7 and S8). In the first case a high molecular weight HPMC (E4M, Dow chemicals) was used to prepare films loaded with GF nanoparticles. In the second a higher concentration of HPMC ([…]) was used to prepare films containing GF nanoparticles (following the same procedure stated above). The percent drug loading and film thickness were kept same as formulations S-S8 and same dissolution testing protocols were followed. The release kinetics of GF from HPMC films was determined by finding the best fit for the release profiles. […]
# [6] = Drug particle size (laser diffraction / DLS) in suspension and after re-dispersion from films; format: physicochemical; conditions: for d50, Tip Speed: 11.72 m/s / d50, Tip Speed: 14.66 m/s: WSMM, 100 μm media; for median size of suspension after milling of drug alone: no stabilizers
# Procedure: An aliquot of the suspensions was dispersed in a 10 ml stabilizer solution and the particle size of the suspensions was measured using a Beckman Coulter LS13320 after milling. The resulting drug suspensions were mixed with a 10% w/w solution of HPMC E15LV and glycerin in a ratio of 1:1, drug suspension to polymer solution. This suspension was stirred for 3 hours with a dual-propeller mixer (McMaster, Catalog no. 3471K5, Los Angeles, Calif., USA). The particle size of the suspensions was measured after mixing with the polymer solution to check for particle growth.
# The term “median size” here refers to the 50% vol. passing size of the cumulative volume distribution in LD and cumulant or z-average mean size in DLS. The griseofulvin particle size above 160 nm was measured in LD and the sizes below were measured using DLS. […] The particle size of un-milled drug suspension (in the presence of stabilizers), was also measured and referred as the 0th minute particle size.
# GF nanosuspensions were produced via WSMM utilizing a Microcermill (NETZSCH, Fine particle technology LLC, Exton, Pa.) as per previously described methods and processing conditions. HPMC and SDS were chosen as stabilizers. […] At the end of milling, a sample was taken from the holding tank of the mill and dispersed into 15 mL HPMC-SDS stabilizers solution (using a pipette) and the particle size distribution of GF in the sample was then measured using laser diffraction in Coulter LS13320 (Beckman Coulter, Miami, Fla.).
# The particle size distribution of GF was measured in suspensions after milling, after mixing with polymer solutions (S-S8) and from re-dispersed films using a laser diffraction technique. […] The size of SDIs (SSG, CCS and CP) was recorded for three cases: after incorporation into HPMC solution, before and after addition of GF nano-suspension and after film re-dispersion. Film re-dispersion was performed by dissolving a small piece of film (about 0.712 cm^2 in area) into 10 mL DI water followed by vortex mixing for 1 min. The same procedure was also followed for formulations S4-S8. Each experiment was performed in triplicate. […]
# Particle size measurement of drug nanoparticles in suspension is described herein. To re-disperse drug particles from films, circular punches of film of about 0.71 cm^2 in area were vortex mixed in 3 mL of DI water for 3-5 minutes.
# The particle size distribution of GF in the nano-suspensions was measured by laser diffraction in Coulter LS13320 (Beckman Coulter, Miami, Fla., USA). A sample of the suspension was taken at the end of milling from the holding tank of the mill. The sample was dispersed in 15 ml HPMC-SDS stabilizer solution by stirring with a pipette. The sample was added drop-wise until the polarization intensity differential scattering (PIDS) reached 40%.
# The same method was used to measure the particles size of GF nanoparticles re-dispersed in water from films. […] The sample particle size was measured after 10 min of magnetic stirring.
# [7] = Film disintegration time in water; format: physicochemical; conditions: ⅝ inch diameter film in 10 ml of water; film about 16 micrometer (Example 8)
# Procedure: The drying temperature was kept constant at 60° C. Casting thickness was adjusted to 200 micron thickness using a Doctor blade film applicator. The film was dried for about 30 min, and the dried film thickness was measured to be about 16 micrometer. The disintegration time of dried films was noted by placing a ⅝ inch diameter film in 10 ml of water. The time taken by the film to disintegrate completely was about 10 seconds.
compound,measurement,setting,value
"NC(=O)N=NC(N)=O [AZD, azodicarbonamide]",logP,[1]; Table 23,5.8
same,Solubility in water at 4° C.,[2],35.0 µg/mL
same,pKa,[3],3.9
same,dissolution profiles of films with vs without SDS,"[4]; SDS media, similarity and difference factors",statistically similar dissolution profiles with and without SDS
same,dissolution profiles of films with vs without SDS,[5],statistically similar dissolution profiles with and without SDS
"COC1=CC(=O)C[C@@H](C)[C@]12Oc1c(Cl)c(OC)cc(OC)c1C2=O [GF, griseofulvin]","partition co-efficient, log P",[1]; as quoted,1.1
same,solubility in water,[2]; as quoted,0.7 µg/mL
same,particle size stability of nanosuspension on storage,[6]; 7 days of storage,the particle size was stable after 7 days of storage
same,"d50, Tip Speed: 11.72 m/s",[6]; time 0,21.845 microns
same,"d50, Tip Speed: 14.66 m/s",[6]; time 0,21.845 microns
same,"d50, Tip Speed: 11.72 m/s",[6]; time 4,1.378 microns
same,"d50, Tip Speed: 14.66 m/s",[6]; time 4,0.479 microns
same,"d50, Tip Speed: 11.72 m/s",[6]; time 8,0.378 microns
same,"d50, Tip Speed: 14.66 m/s",[6]; time 8,0.267 microns
same,"d50, Tip Speed: 11.72 m/s",[6]; time 16,0.149 microns
same,"d50, Tip Speed: 14.66 m/s",[6]; time 16,0.134 microns
same,"d50, Tip Speed: 11.72 m/s",[6]; time 32,0.122 microns
same,"d50, Tip Speed: 14.66 m/s",[6]; time 32,0.112 microns
same,"d50, Tip Speed: 11.72 m/s",[6]; time 64,0.106 microns
same,"d50, Tip Speed: 14.66 m/s",[6]; time 64,0.087 microns
same,"d50, Tip Speed: 11.72 m/s",[6]; time 120,0.084 microns
same,"d50, Tip Speed: 14.66 m/s",[6]; time 120,0.069 microns
same,"d50, Tip Speed: 11.72 m/s",[6]; time 180,0.069 microns
same,"d50, Tip Speed: 14.66 m/s",[6]; time 180,0.061 microns
same,"d50, Tip Speed: 11.72 m/s",[6]; time 240,0.067 microns
same,"d50, Tip Speed: 14.66 m/s",[6]; time 240,0.064 microns
same,"d50, Tip Speed: 11.72 m/s",[6]; time 300,0.062 microns
same,"d50, Tip Speed: 14.66 m/s",[6]; time 300,0.059 microns
same,"d50, Tip Speed: 11.72 m/s",[6]; time 360,0.060 microns
same,"d50, Tip Speed: 14.66 m/s",[6]; time 360,0.056 microns
same,median size of suspension after milling of drug alone,[6],4 um
same,final particle size at 360 min of milling,[6]; tip speed 11.72 m/s,60 nm
same,final particle size at 360 min of milling,[6]; tip speed 14.66 m/s,56 nm
same,disintegration time of dried film,[7],about 10 seconds
same,percent griseofulvin dissolved within five minutes,"[4]; 0.025 M SDS, about 18 micron HPMC film, 70 nm nanoparticles (Example 8)",about 100%
"COc1ccc2cc([C@H](C)C(=O)O)ccc2c1 [NPX, naproxen]",median size of nanoparticles milled in the presence of HPMC alone,[6],147 nm
same,median size of suspension after milling of drug alone,[6],12 um
"COC1=CC(=O)C[C@@H](C)[C@]12Oc1c(Cl)c(OC)cc(OC)c1C2=O [as received powder, griseofulvin]",% of GF released in 50 minutes,"[4]; SDS solution […], FIG. 47",40%
